The record followed here is patent US8710043B2, “TRPM8 antagonists and their use in treatments” (Amgen Inc., priority 2011, dated 2014).

The target in this test is T1, human TRPM8 (Homo sapiens, UniProt Q7Z2W7).
T1 construct: expressed in transfected cells; host or cells: Chinese hamster ovary (CHO) cells, T-REx tetracycline-inducible system, co-transfected with aequorin
Nature of the test: Luminescence readout assay for measuring intracellular calcium, icilin activation. To be noted: CHO cells expressing human TRPM8, aequorin luminescence, 1 μM icilin activation; read-out: hTRPM8 IC50. In kind it is cell-based. The method, then:
Luminescence Readout Assay for Measuring Intracellular Calcium.
A stable Chinese hamster ovary cell line expressing human TRPM8 was generated using tetracycline inducible T-REx™ expression system from Invitrogen, Inc. (Carlsbad, Calif.). […] Twenty four hours before the assay, cells were seeded in 96-well plates and TRPM8 expression was induced with 0.5 μg/mL tetracycline. […] Potential antagonists were added 2.5 min prior to the addition of agonist, 1 μM icilin, 100 μM L-menthol, or 1 min prior to the addition of cold buffer (<10° C.). The luminescence was measured by a CCD camera based FLASH-luminometer built by Amgen, Inc. A cooling device attached to FLASH luminometer was used for cold activation.

T1 sequence (Q7Z2W7 whole entry): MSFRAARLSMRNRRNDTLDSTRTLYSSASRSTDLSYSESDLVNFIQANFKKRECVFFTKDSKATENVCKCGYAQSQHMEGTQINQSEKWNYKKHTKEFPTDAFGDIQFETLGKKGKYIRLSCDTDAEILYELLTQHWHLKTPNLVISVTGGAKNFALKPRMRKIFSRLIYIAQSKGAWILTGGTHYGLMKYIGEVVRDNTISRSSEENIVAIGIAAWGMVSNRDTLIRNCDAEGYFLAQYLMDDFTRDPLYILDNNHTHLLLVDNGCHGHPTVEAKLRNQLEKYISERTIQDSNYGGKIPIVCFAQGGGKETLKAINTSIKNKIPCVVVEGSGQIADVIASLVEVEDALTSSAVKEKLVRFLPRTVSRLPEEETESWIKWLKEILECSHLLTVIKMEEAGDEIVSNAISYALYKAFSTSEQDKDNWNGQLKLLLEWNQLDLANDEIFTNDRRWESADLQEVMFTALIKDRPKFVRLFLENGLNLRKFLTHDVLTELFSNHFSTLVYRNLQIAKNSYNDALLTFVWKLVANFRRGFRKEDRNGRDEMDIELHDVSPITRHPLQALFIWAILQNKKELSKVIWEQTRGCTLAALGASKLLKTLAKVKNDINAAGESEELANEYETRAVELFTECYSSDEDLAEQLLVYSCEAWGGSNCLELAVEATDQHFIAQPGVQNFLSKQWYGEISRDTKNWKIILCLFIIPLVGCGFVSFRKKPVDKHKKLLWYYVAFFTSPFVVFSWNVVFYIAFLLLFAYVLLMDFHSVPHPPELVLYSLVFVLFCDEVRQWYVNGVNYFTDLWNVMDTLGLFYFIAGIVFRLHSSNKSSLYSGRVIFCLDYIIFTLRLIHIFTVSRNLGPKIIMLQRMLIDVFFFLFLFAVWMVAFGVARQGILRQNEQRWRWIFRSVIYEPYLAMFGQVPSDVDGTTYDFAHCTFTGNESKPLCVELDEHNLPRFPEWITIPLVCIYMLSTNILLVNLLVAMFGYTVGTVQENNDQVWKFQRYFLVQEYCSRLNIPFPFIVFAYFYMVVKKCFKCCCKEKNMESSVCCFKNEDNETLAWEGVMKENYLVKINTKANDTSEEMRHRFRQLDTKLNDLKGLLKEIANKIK

By IC50 is commonly meant the concentration needed to halve the response being measured. As to `CC1(C#Cc2cccnc2[C@@H](NC(=O)c2ccc3ncccc3c2)c2ccc(C(F)(F)F)cc2)COC1` [Example 101, (S)-N-((3-((3-methyloxetan-3-yl)ethynyl)pyridin-2-yl)(4-(trifluoromethyl)phenyl)methyl)quinoline-6-carboxamide 2,2,2-trifluoroacetate], the IC50 amounted to 395 nM.

As to `O=C(N[C@@H](c1ccc(F)c(F)c1)c1ncccc1F)c1ccc(=O)[nH]c1` [Example 331, (S)-N-((3,4-difluorophenyl)(3-fluoropyridin-2-yl)methyl)-6-oxo-1,6-dihydropyridine-3-carboxamide], the IC50 amounted to 965 nM.

For the molecule `O=C(N[C@@H](c1ccc(C(F)(F)F)cc1)c1ccccn1)c1ccc2oc(=O)[nH]c2c1` [Example 361, (S)-2-oxo-N-(pyridin-2-yl(4-(trifluoromethyl)phenyl)methyl)-2,3-dihydrobenzo[d]oxazole-5-carboxamide], the IC50 amounted to 5.8 nM.

As for `O=C(N[C@@H](c1ccc(C(F)(F)F)cc1)c1ncccc1C(F)(F)F)c1ccc2nccc(O)c2c1` [Example 109, (S)-4-hydroxy-N-((4-(trifluoromethyl)phenyl)(3-(trifluoromethyl)pyridin-2-yl)methyl)quinoline-6-carboxamide 2,2,2-trifluoroacetate], the IC50 was found to be 63.9 nM.

On to `CC(C)n1cc(C(=O)N[C@@H](c2ccc(C(F)(F)F)cc2)c2ncccc2F)ccc1=O` [Example 367, (S)-N-((3-fluoropyridin-2-yl)(4-(trifluoromethyl)phenyl)methyl)-1-isopropyl-6-oxo-1,6-dihydropyridine-3-carboxamide], for which the IC50 was 68.3 nM.

Consider `O=C(N[C@@H](c1ccc(C(F)(F)F)cc1)c1ncccc1C(F)(F)F)c1cc2cccnc2[nH]1` [Example 66, (S)-N-((4-(trifluoromethyl)phenyl)(3-(trifluoromethyl)pyridin-2-yl)methyl)-1H-pyrrolo[2,3-b]pyridine-2-carboxamide], for which the half-maximal inhibitory concentration (IC50) stood at 405 nM.

As for `C=CCN1C(=O)c2ccc(C(=O)N[C@@H](c3ccc(C(F)(F)F)cc3)c3ncccc3C(F)(F)F)cc2C1=O` [Example 268, (S)-2-Allyl-1,3-dioxo-N-((4-(trifluoromethyl)phenyl)(3-(trifluoromethyl)pyridin-2-yl)methyl)isoindoline-5-carboxamide], the 50% inhibitory concentration (IC50) turned out to be 156 nM.

As to `O=C(N[C@@H](c1ccc(C(F)(F)F)cc1)c1ncccc1C(F)(F)F)c1c[nH]c2ncncc12` [Example 45, (S)-N-((4-(trifluoromethyl)phenyl)(3-(trifluoromethyl)pyridin-2-yl)methyl)-7H-pyrrolo[2,3-d]pyrimidine-5-carboxamide], the IC50 was found to be 63.5 nM.

In the case of `Cn1cc(C(=O)N[C@@H](c2cc(F)cc(F)c2)c2ncccc2F)ccc1=O` [Example 330, (S)-N-((3,5-difluorophenyl)(3-fluoropyridin-2-yl)methyl)-1-methyl-6-oxo-1,6-dihydropyridine-3-carboxamide], the IC50 is 2680 nM.

As to `COc1ccc(C(=O)N[C@@H](c2ccc(F)cc2)c2ncccc2C(F)(F)F)cn1` [Example 124, (S)-N-((4-fluorophenyl)(3-(trifluoromethyl)pyridin-2-yl)methyl)-6-methoxynicotinamide], the IC50 turned out to be 190 nM.

In the case of `O=C(N[C@@H](c1ccc(C(F)(F)F)cc1)c1ncccc1C(F)(F)F)c1cncnc1O` [Example 61, (S)-4-hydroxy-N-((4-(trifluoromethyl)phenyl)(3-(trifluoromethyl)pyridin-2-yl)methyl)pyrimidine-5-carboxamide], the IC50 is 312 nM.

Take `N#Cc1ccc(C(=O)N[C@@H](c2ccc(C(F)(F)F)cc2)c2ncccc2C(F)(F)F)cn1` [Example 206, (S)-6-cyano-N-((4-(trifluoromethyl)phenyl)(3-(trifluoromethyl)pyridin-2-yl)methyl)nicotinamide]: the half-inhibitory concentration (IC50) stood at 67.5 nM.

`O=C(N[C@@H](c1ccc(C(F)(F)F)cc1)c1ncccc1C(F)(F)F)c1cnc(O)nc1` [Example 266, (S)-2-Hydroxy-N-((4-(trifluoromethyl)phenyl)(3-(trifluoro-methyl)pyridin-2-yl)methyl)pyrimidine-5-carboxamide]: the IC50 was found to be 223 nM.

Regarding `O=C1COc2cc(C(=O)N[C@@H](c3ccc(C(F)(F)F)cc3)c3ncccc3F)ccc2N1` [Example 73, (S)-N-((3-fluoropyridin-2-yl)(4-(trifluoromethyl)phenyl)methyl)-3-oxo-3,4-dihydro-2H-benzo[b][1,4]oxazine-7-carboxamide], the IC50 was 17 nM.

With `O=C(N[C@@H](c1ccc(C(F)(F)F)cc1)c1ncccc1C(F)(F)F)c1ccc2c(c1)C(=O)NC2` [Example 265, (S)-3-oxo-N-((4-(trifluoromethyl)phenyl)(3-(trifluoromethyl)-pyridin-2-yl)methyl)isoindoline-5-carboxamide], the IC50 was 62.2 nM.

Regarding `O=C(N[C@@H](c1ccc(C(F)(F)F)cc1)c1ncccc1F)c1ccc2c(Cl)ccnc2c1` [Example 120, (S)-4-chloro-N-((3-fluoropyridin-2-yl)(4-(trifluoromethyl)phenyl)methyl)quinoline-7-carboxamide 2,2,2-trifluoroacetate], the IC50 was found to be 59.4 nM.

For `O=C(N[C@@H](c1ccc(C(F)(F)F)cc1)c1ncccc1C(F)(F)F)c1ccc2c(O)ccnc2c1` [Example 106, (S)-4-hydroxy-N-((4-(trifluoromethyl)phenyl)(3-(trifluoromethyl)pyridin-2-yl)methyl)quinoline-7-carboxamide 2,2,2-trifluoroacetate], the IC50 came out at 8.9 nM.

In the case of `Cn1cc(C(=O)N[C@@H](c2ccc(OC(F)(F)F)c(F)c2)c2ccccc2F)ccc1=O` [Example 296, (S)-N-((3-fluoro-4-(trifluoromethoxy)phenyl)(2-fluorophenyl)methyl)-1-methyl-6-oxo-1,6-dihydropyridine-3-carboxamide], the IC50 amounted to 23.1 nM.

With `O=C(N[C@@H](c1ccc(OC(F)(F)F)cc1)c1ncccc1F)c1ccc2nccn2c1` [Example 89], the IC50 amounted to 10.3 nM.

On to `Cn1ccc(C(=O)N[C@@H](c2ccc(C(F)(F)F)cc2)c2ncccc2C(F)(F)F)cc1=O` [Example 49, (S)-1-methyl-2-oxo-N-((4-(trifluoromethyl)phenyl)(3-(trifluoromethyl)pyridin-2-yl)methyl)-1,2-dihydropyridine-4-carboxamide], for which the IC50 was found to be 127 nM.

As to `CC(=O)Nc1ccc(C(=O)N[C@@H](c2ccc(C(F)(F)F)cc2)c2ncccc2C(F)(F)F)cn1` [Example 148, (S)-6-acetamido-N-((4-(trifluoromethyl)phenyl)(3-(trifluoromethyl)pyridin-2-yl)methyl)nicotinamide 2,2,2-trifluoroacetate], the half-inhibitory concentration (IC50) was 257 nM.

Take `Cc1cncc(C(=O)N[C@@H](c2ccc(C(F)(F)F)cc2)c2ncccc2C(F)(F)F)c1` [Example 182, (S)-5-methyl-N-((4-(trifluoromethyl)phenyl)(3-(trifluoromethyl)pyridin-2-yl)methyl)nicotinamide 2,2,2-trifluoroacetate]: the IC50 was 41.8 nM.

For the molecule `O=C(N[C@@H](c1ccc(C(F)(F)F)c(F)c1)c1ccccc1C(F)(F)F)c1ccc2ncccc2c1` [Example 257, (S)-N-((3-fluoro-4-(trifluoromethyl)phenyl)(2-(trifluoromethyl)phenyl)methyl)quinoline-6-carboxamide], the IC50 turned out to be 109 nM.

Regarding `CC(C)Cc1cc(C(=O)N[C@@H](c2ccc(C(F)(F)F)c(F)c2)c2ncccc2C(F)(F)F)c2ccccc2n1` [Example 156, (S)-N-((3-fluoro-4-(trifluoromethyl)phenyl)(3-(trifluoromethyl)pyridin-2-yl)methyl)-2-isobutylquinoline-4-carboxamide bis (2,2,2-trifluoroacetate)], the half-inhibitory concentration (IC50) is 301 nM.

`C[C@H](O)Cn1cc(C(=O)N[C@@H](c2ccc(C(F)(F)F)cc2)c2ncccc2F)ccc1=O` [Example 300, N-((S)-(3-fluoropyridin-2-yl)(4-(trifluoromethyl)phenyl)methyl)-1-((S)-2-hydroxypropyl)-6-oxo-1,6-dihydropyridine-3-carboxamide]: the IC50 is 69.7 nM.

As for `CC(C)(O)Cn1cc(C(=O)N[C@@H](c2ccc(OC(F)(F)F)c(F)c2)c2ncccc2F)ccc1=O` [Example 302, (S)-N-((3-fluoro-4-(trifluoromethoxy)phenyl)(3-fluoropyridin-2-yl)methyl)-1-(2-hydroxy-2-methylpropyl)-6-oxo-1,6-dihydropyridine-3-carboxamide], the IC50 stood at 70.9 nM.

Consider `O=C(NC(c1ccc(OC(F)(F)F)c(F)c1)c1cccc(F)c1F)c1ccc(=O)[nH]c1` (stereo not drawn) [Example 412, N-((2,3-difluorophenyl)(3-fluoro-4-(trifluoromethoxy)phenyl)methyl)-6-oxo-1,6-dihydropyridine-3-carboxamide], for which the IC50 worked out at 48 nM.

Take `O=C(N[C@@H](c1ccc(C(F)(F)F)cc1)c1ncccc1F)c1ccc(-c2nc(=O)o[nH]2)cc1` [Example 315, (S)-N-((3-fluoropyridin-2-yl)(4-(trifluoromethyl)phenyl)methyl)-4-(5-oxo-2,5-dihydro-1,2,4-oxadiazol-3-yl)benzamide]: the IC50 came to 36.3 nM.

For the molecule `COc1ccnc(C(=O)N[C@@H](c2ccc(C(F)(F)F)cc2)c2ncccc2C(F)(F)F)c1` [Example 32, (S)-4-methoxy-N-((4-(trifluoromethyl)phenyl)(3-(trifluoromethyl)pyridin-2-yl)methyl)picolinamide], the half-maximal inhibitory concentration (IC50) came out at 143 nM.

Take `CCCc1cccnc1[C@@H](NC(=O)c1ccc(=O)[nH]c1)c1ccc(C(F)(F)F)cc1` [Example 267, (S)-6-Oxo-N-((3-propylpyridin-2-yl)(4-(trifluoromethyl)-phenyl)methyl)-1,6-dihydropyridine-3-carboxamide]: the IC50 was found to be 9.9 nM.
